Measurements taken from PubChem BioAssay (NCI).
“And” between values parts separate entries of the source, which are not always exact repeats. Equal values may be shown once.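 Protocol summary: plate cells (96-well), add compound at 5 concentrations, incubate 48 h, interpolate endpoints linearly. GI50 marks 50% less growth. TGI: concentration producing complete growth inhibition.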

What was measured:
Experiment in all cases: NCI tumour cell line growth inhibition, 48 h
[1] = system: A549 NSCLC
[2] = system: DLD-1 colon
[3] = system: DMS 273 small cell lung
[4] = system: HL-60(TB) leukemia
[5] = system: NCI-H522 lung
[6] = system: SF-539 CNS
[7] = system: SNB-75 CNS
[8] = system: SNB-78 CNS
[9] = system: NCI-H460 lung
[10] = system: MCF7 breast
[11] = system: SR leukemia
[12] = system: KM20L2 colon

Structure (SMILES)	TGI [1]	TGI [2]	TGI [3]	TGI [4]	TGI [5]	TGI [6]	TGI [7]	TGI [8]	TGI [9]	GI50 [1]	GI50 [4]	GI50 [10]	TGI [10]	GI50 [9]	GI50 [5]	GI50 [6]	GI50 [7]	GI50 [11]	TGI [11]	TGI [12]
O=C1CCCC(O)=C1SC1=C(O)CCCC1=O	> 100 µM	> 100 µM	> 100 µM	> 100 µM	> 100 µM	> 100 µM	> 100 µM	> 100 µM	–	–	–	–	–	–	–	–	–	–	–	–
NC(CCc1ncc(-c2ccccc2)s1)C(=O)O (stereo not drawn)	> 100 µM	> 100 µM	> 100 µM	> 100 µM	> 100 µM	> 100 µM	> 100 µM	> 100 µM	> 100 µM	–	–	–	–	–	–	–	–	–	–	–
COc1ccc(C(=O)/C=C/c2cc(-c3ccc4c(c3)OCO4)n[nH]2)cc1OC	15.8 µM	–	–	11.8 µM	4.44 µM	4.47 µM	7.57 µM	–	4.05 µM	2.7 µM	2.82 µM	3.27 µM	16.8 µM	1.81 µM	1.82 µM	1.91 µM	1.98 µM	1.27 µM	6.48 µM	–
Cc1ccc2nc3c(n2c1)C(=O)C(=O)c1ccccc1-3	0.62 µM	–	–	0.602 µM	0.538 µM	0.326 µM	0.618 µM	–	0.718 µM	0.199 µM	0.17 µM	0.14 µM	0.308 µM	0.173 µM	0.216 µM	0.164 µM	0.266 µM	0.264 µM	3.33 µM	–
CCCCCCCCCCC[C@@H](C[C@H]1OC(=O)[C@H]1CCCCCC)OC(=O)[C@@H](CC(C)C)NC=O	> 100 µM	–	–	4.34 µM	26.4 µM	31 µM	12.6 µM	–	21.1 µM	13.1 µM	1.75 µM	3.07 µM	13.8 µM	3.63 µM	5.56 µM	5.48 µM	2.55 µM	3.52 µM	42.9 µM	–
CNC(=O)c1cc(Oc2ccc3nc(N[C@@H]4CCCC[C@H]4O)sc3c2)ccn1	> 100 µM	–	–	> 100 µM	> 100 µM	> 100 µM	> 100 µM	–	> 100 µM	62.5 µM	62.5 µM	36.6 µM	> 100 µM	53.4 µM	> 76.7 µM	36.3 µM	31.3 µM	40 µM	> 100 µM	–
O=C(Nc1ccc(Nc2ccncc2)cc1)c1ccc(Nc2ccnc3ccc([N+](=O)[O-])cc23)cc1[N+](=O)[O-]	> 44.2 µM	–	–	> 58.7 µM	68.6 µM	11.2 µM	50.6 µM	–	> 100 µM	3.95 µM	25 µM	4.73 µM	> 100 µM	9.96 µM	21.9 µM	2.98 µM	16 µM	16.6 µM	38.8 µM	–
OCCn1cc(-c2cnc3nnn(Cc4ccc5ncccc5c4)c3n2)cn1	> 100 µM	–	–	> 100 µM	> 100 µM	> 100 µM	> 100 µM	–	> 100 µM	> 100 µM	> 100 µM	> 100 µM	> 100 µM	> 100 µM	> 100 µM	> 100 µM	> 100 µM	> 100 µM	> 100 µM	–
COc1cc(-c2nc(-c3ccc(-c4nc5ccc(F)cc5[nH]4)cc3)no2)cc(OC)c1OC	14.6 µM	–	–	5.35 µM	8.98 µM	18.7 µM	62.4 µM	–	12.5 µM	3.42 µM	2.24 µM	2.88 µM	13.5 µM	2.97 µM	3.04 µM	3.38 µM	7.74 µM	2.98 µM	> 100 µM	–
O=C1CCSC(=S)N1c1ccc(Br)c(Cl)c1	> 100 µM	–	–	75.9 µM	42.6 µM	> 100 µM	52.6 µM	–	62.5 µM	–	–	–	48.6 µM	–	–	–	–	–	> 100 µM	–
COc1ccc(C2=N[C@@H](c3ccc(Cl)cc3)[C@@H](c3ccc(Cl)cc3)N2C(=O)N2CCNC(=O)C2)c(OC(C)C)c1	27.4 µM and 18.4 µM and 17.4 µM	–	–	35.8 µM and 42.3 µM and 51 µM	28.5 µM and 27.3 µM and 31.1 µM	32 µM and 32.9 µM and 35.1 µM	26.5 µM and 25.1 µM and 26.2 µM	–	29.9 µM and 16.3 µM and 14.8 µM	13.3 µM and 3.9 µM and 3.65 µM	15.1 µM and 18.1 µM and 18.5 µM	13 µM and 2.43 µM and 2.27 µM	28.2 µM and 12.9 µM and 13 µM	14.8 µM and 3.04 µM and 2.17 µM	14.6 µM and 13.6 µM and 16.3 µM	16.5 µM and 17.2 µM and 17.8 µM	13.4 µM and 11.8 µM and 11.9 µM	11.7 µM and 2.07 µM and 1.19 µM	36.5 µM and 23.9 µM and 17 µM	–
CCCC(C)c1c(Cl)nc(Cl)nc1Cl (stereo not drawn)	29.4 µM	–	–	> 100 µM	5.32 µM	19 µM	27.5 µM	–	45.6 µM	–	–	–	26.3 µM	–	–	–	–	–	> 100 µM	–
O=C(Oc1ccc2c(-c3ccccc3)c(C(=O)Nc3ccc(Cl)cc3)c(=O)oc2c1)c1ccccc1	> 100 µM	> 100 µM	> 100 µM	> 100 µM	> 100 µM	> 100 µM	> 100 µM	–	> 100 µM	–	–	–	–	–	–	–	–	–	–	> 100 µM
Clc1ccc2nc(Cl)c3ccccc3c2c1	> 100 µM	–	–	> 100 µM	> 100 µM	42 µM	8.16 µM	–	11.8 µM	5.92 µM	> 100 µM	96 µM	> 100 µM	3.29 µM	63.4 µM	12 µM	2.09 µM	22 µM	> 100 µM	–
Oc1ccc(Oc2cnc3cc(Cl)ccc3n2)cc1	> 100 µM	–	–	> 100 µM	> 100 µM	> 100 µM	> 100 µM	–	53.1 µM	61.8 µM	2.25 µM	38.1 µM	> 100 µM	20.1 µM	19.1 µM	49.4 µM	26 µM	22 µM	68.4 µM	–
O=C(Cn1c(C(=O)c2ccc(Cl)cc2)nc(-c2ccccc2)c1-c1ccccc1)c1ccc(Cl)cc1	> 100 µM	–	–	> 100 µM	> 100 µM	> 100 µM	> 100 µM	–	> 100 µM	> 100 µM	> 100 µM	> 100 µM	> 100 µM	> 100 µM	> 100 µM	> 100 µM	> 100 µM	> 100 µM	> 100 µM	–
